Reference: patent US10214545B2, “Amido-substituted imidazopyridazines useful in the treatment of hyper-proliferative and/or angiogenesis disorders” (BAYER PHARMA AKTIENGESELLSCHAFT, priority 2014, dated 2019)

Legend:
human full-length MKNK1 [1] = biological target: T1, human full-length MKNK1 (Homo sapiens (Human), UniProt Q9BUB5, T344D); test: MKNK1 kinase assay (TR-FRET, 10 μM ATP); type: biochemical; conditions: 15 min preincubation, GST-MKNK1 (T344D)
Description: MKNK1-inhibitory activity of compounds of the present invention was quantified employing the MKNK1 TR-FRET assay as described in the following paragraphs. […] As substrate for the kinase reaction the biotinylated peptide biotin-Ahx-[…]
For the assay 50 nL of a 100 fold concentrated solution of the test compound in DMSO was pipetted into a black low volume 384 well microtiter plate (Greiner Bio-One, Frickenhausen, Germany), 2 μL of a solution of MKNK1 in aqueous assay buffer [50 mM HEPES pH 7.5, 5 mM magnesium chloride, 1.0 mM dithiothreitol, 0.005% (v/v) Nonidet-P40 (Sigma)] was added and the mixture was incubated for 15 min at 22° C. to allow pre-binding of the test compounds to the enzyme before the start of the kinase reaction. […] The concentration of MKNK1 was adjusted depending of the activity of the enzyme lot and was chosen appropriate to have the assay in the linear range, typical concentrations were in the range of 0.05 μg/mi. The reaction was stopped by the addition of 5 μL of a solution of TR-FRET detection reagents (5 nM streptavidine-XL665 [Cisbio Bioassays, Codolet, France] and 1 nM anti-ribosomal protein […] (pSer236)-antibody from Invitrogen [#44921G] and 1 nM LANCE EU-W1024 labeled ProteinG [Perkin-Elmer, product no. AD0071]) in an aqueous EDTA-solution (100 mM EDTA, 0.1% (w/v) bovine serum albumin in 50 mM HEPES pH 7.5).
(§1) The resulting mixture was incubated for 1 h at 22° C. to allow the formation of complex between the phosphorylated biotinylated peptide and the detection reagents. Subsequently the amount of phosphorylated substrate was evaluated by measurement of the resonance energy transfer from the Eu-chelate to the streptavidine-XL.

human full-length MKNK1 [2] = biological target: T1, human full-length MKNK1; test: MKNK1 kinase high ATP assay (TR-FRET, 2 mM ATP); type: biochemical; conditions: 15 min preincubation, GST-MKNK1 (T344D)
Description: MKNK1-inhibitory activity at high ATP of compounds of the present invention after their preincubation with MKNK1 was quantified employing the TR-FRET-based MKNK1 high ATP assay as described in the following paragraphs.
As substrate for the kinase reaction the biotinylated peptide biotin-Ahx-[…]
For the assay 50 nL of a 100 fold concentrated solution of the test compound in DMSO was pipetted into a black low volume 384 well microtiter plate (Greiner Bio-One, Frickenhausen, Germany), 2 μL of a solution of MKNK1 in aqueous assay buffer [50 mM HEPES pH 7.5, 5 mM magnesium chloride, 1.0 mM dithiothreitol, 0.005% (v/v) Nonidet-P40 (Sigma)] was added and the mixture was incubated for 15 min at 22° C. to allow pre-binding of the test compounds to the enzyme before the start of the kinase reaction. Then the kinase reaction was started by the addition of 3 μL of a solution of adenosine-tri-phosphate (ATP, 3.3 mM=>final conc. in the 5 μL assay volume is 2 mM) and substrate (0.1 μM=>final conc. in the 5 μL assay volume is 0.06 μM) in assay buffer and the resulting mixture was incubated for a reaction time of 30 min at 22° C. The concentration of MKNK1 was adjusted depending of the activity of the enzyme lot and was chosen appropriate to have the assay in the linear range, typical concentrations were in the range of 0.003 μg/mL. The reaction was stopped by the addition of 5 μL of a solution of TR-FRET detection reagents (5 nM streptavidine-XL665 [Cisbio Bioassays, Codolet, France] and 1 nM anti-ribosomal protein S6 (pSer236)-antibody from Invitrogen [#44921G] and 1 nM LANCE EU-W1024 labeled ProteinG [Perkin-Elmer, product no. AD0071]) in an aqueous EDTA-solution (100 mM EDTA, 0.1% (w/v) bovine serum albumin in 50 mM HEPES pH 7.5).
as §1

T1 sequence (Q9BUB5 other isoform, or with tags, fused parts or gaps T344D): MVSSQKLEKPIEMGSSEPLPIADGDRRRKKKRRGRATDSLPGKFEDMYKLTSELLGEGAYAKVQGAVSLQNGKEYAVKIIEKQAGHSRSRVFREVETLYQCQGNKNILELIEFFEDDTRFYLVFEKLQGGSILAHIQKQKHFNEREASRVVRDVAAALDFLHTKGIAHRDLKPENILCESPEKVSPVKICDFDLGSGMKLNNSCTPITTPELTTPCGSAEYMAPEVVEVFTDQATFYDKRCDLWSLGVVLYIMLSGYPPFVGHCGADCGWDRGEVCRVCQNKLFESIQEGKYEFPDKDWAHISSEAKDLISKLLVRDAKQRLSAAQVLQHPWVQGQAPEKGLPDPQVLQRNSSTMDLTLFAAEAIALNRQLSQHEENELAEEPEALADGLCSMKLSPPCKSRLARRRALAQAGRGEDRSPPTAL

SMILES	IC50 (human full-length MKNK1 [1]) [nM]	IC50 (human full-length MKNK1 [2]) [nM]
CC(C)[C@H](CO)NC(=O)c1ccc2ncc(-c3cc4ccccc4o3)n2n1 [Example 13, 3-(1-Benzofuran-2-yl)-N-[(2R)-1-hydroxy-3-methylbutan-2-yl]imidazo[1,2-b]-pyridazine-6-carboxamide]	6.8	12
C[C@H](CO)NC(=O)c1ccc2ncc(-c3cc4ccccc4o3)n2n1 [Example 11, 3-(1-Benzofuran-2-yl)-N-[(2R)-1-hydroxypropan-2-yl]imidazo[1,2-b]pyridazine-6-carboxamide]	4.1	8.8
CN(C)CCN(C)C(=O)c1ccc2ncc(-c3cc4c(N5CCOCC5)nccc4o3)n2n1 [Example 3, N-[2-(dimethylamino)ethyl]-N-methyl-3-[4-(morpholin-4-yl)furo[3,2-c]pyridin-2-yl]imidazo[1,2-b]pyridazine-6-carboxamide]	88	140
CC(C)[C@@H](CO)NC(=O)c1ccc2ncc(-c3cc4ccccc4o3)n2n1 [Example 18, 3-(1-Benzofuran-2-yl)-N-[(2S)-1-hydroxy-3-methylbutan-2-yl]imidazo[1,2-b]-pyridazine-6-carboxamide]	1.3	42
COCCCNC(=O)c1ccc2ncc(-c3cc4ccccc4o3)n2n1 [Example 12, 3-(1-Benzofuran-2-yl)-N-(3-methoxypropyl)imidazo[1,2-b]pyridazine-6-carboxamide]	4.9	9.5
CN1CCN(C(=O)c2ccc3ncc(-c4cc5c(N6CCOCC6)nccc5o4)n3n2)CC1 [Example 4, (4-Methylpiperazin-1-yl){3-[4-(morpholin-4-yl)furo[3,2-c]pyridin-2-yl]imidazo-[1,2-b]pyridazin-6-yl}methanone]	110	280
O=C(NCc1ccccc1)c1ccc2ncc(-c3cc4ccccc4o3)n2n1 [Example 14, 3-(1-Benzofuran-2-yl)-N-benzylimidazo[1,2-b]pyridazine-6-carboxamide]	5.2	12
CN(Cc1ccccc1)C(=O)c1ccc2ncc(-c3cc4ccccc4o3)n2n1 [Example 16, 3-(1-Benzofuran-2-yl)-N-benzyl-N-methylimidazo[1,2-b]pyridazine-6-carboxamide]	8.8	23
CN(C)CCCNC(=O)c1ccc2ncc(-c3cc4ccccc4o3)n2n1 [Example 10, 3-(1-Benzofuran-2-yl)-N-[3-(dimethylamino)propyl]imidazo[1,2-b]pyridazine-6-carboxamide]	3.3	7.9
COCCNC(=O)c1ccc2ncc(-c3cc4ccccc4o3)n2n1 [Example 15, 3-(1-Benzofuran-2-yl)-N-(2-methoxyethyl)imidazo[1,2-b]pyridazine-6-carboxamide]	8	15
CN(C)CCNC(=O)c1ccc2ncc(-c3cc4ccccc4o3)n2n1 [Example 17, 3-(1-Benzofuran-2-yl)-N-[2-(dimethylamino)ethyl]imidazo[1,2-b]pyridazine-6-carboxamide]	1.7	34
